Test results taken from ChEMBL document CHEMBL1201862, “PubChem BioAssay data set” (2004).
Activity calls are given as the source filed them.

Legend:
[1] = target: T1, Tyrosine-protein phosphatase non-receptor type 7 (Homo sapiens, UniProt P35236); assay: inhibitors of human HePTP phosphatase, […], biochemical, absorbance, leukemia target (AID 521); assay type: functional
T1 sequence (P35236 whole entry): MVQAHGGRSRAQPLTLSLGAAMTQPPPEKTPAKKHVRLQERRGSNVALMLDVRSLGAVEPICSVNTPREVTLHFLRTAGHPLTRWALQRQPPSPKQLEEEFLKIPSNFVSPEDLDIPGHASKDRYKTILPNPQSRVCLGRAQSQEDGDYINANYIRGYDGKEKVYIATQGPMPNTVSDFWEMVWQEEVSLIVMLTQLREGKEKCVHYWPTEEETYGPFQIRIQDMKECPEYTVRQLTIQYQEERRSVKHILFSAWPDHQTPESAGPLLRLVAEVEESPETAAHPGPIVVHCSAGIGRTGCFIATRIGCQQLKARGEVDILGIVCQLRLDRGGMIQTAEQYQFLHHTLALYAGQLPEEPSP

cells = assay type: functional
[2] = target: Disintegrin and metalloproteinase domain-containing protein 17 (Homo sapiens, UniProt P78536); assay: ADAM17 protease inhibitors, dose response, counter-screen for ADAM10 exosite inhibitor project, biochemical, quenched FRET substrate (AID 743253)
Disintegrin and metalloproteinase domain-containing protein 17, sequence (P78536 whole entry, the tested form may be a part): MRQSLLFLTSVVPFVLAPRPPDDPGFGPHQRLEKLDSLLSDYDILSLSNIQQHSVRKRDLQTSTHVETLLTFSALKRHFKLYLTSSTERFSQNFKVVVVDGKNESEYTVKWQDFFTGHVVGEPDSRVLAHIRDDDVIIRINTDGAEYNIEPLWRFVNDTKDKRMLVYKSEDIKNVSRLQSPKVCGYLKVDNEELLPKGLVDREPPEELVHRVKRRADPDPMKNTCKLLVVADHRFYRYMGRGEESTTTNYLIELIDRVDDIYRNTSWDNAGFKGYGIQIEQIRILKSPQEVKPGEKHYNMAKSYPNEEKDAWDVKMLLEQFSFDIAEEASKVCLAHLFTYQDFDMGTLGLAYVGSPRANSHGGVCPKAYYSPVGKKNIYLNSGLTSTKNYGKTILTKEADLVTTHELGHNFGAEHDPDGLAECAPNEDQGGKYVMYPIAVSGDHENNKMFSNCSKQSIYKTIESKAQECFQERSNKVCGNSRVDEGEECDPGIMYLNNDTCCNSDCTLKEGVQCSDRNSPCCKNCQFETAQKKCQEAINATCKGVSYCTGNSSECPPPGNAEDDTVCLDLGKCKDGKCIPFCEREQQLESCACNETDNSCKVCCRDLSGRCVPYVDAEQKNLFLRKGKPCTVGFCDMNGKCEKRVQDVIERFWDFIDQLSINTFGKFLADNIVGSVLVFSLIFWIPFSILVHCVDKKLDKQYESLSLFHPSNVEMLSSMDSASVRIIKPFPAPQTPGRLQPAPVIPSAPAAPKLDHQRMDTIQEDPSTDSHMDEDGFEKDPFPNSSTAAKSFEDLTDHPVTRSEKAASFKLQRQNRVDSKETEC

[3] = ADAM10 inhibitors, peptide cleavage, dose response, biochemical, QFRET (AID 743254);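 further: ADAM10 enzyme with the DM2 quenched FRET peptide as substrate; EDANS fluorescence gain as the protease cuts the substrate; inhibitor potency against ADAM10 proteolytic activity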
[4] = HEp-2 cell cytotoxicity, dose response, cytotoxicity control for RSV inhibitor project, HTS (AID 2410); assay type: functional; conditions: human respiratory syncytial virus
Prothrombin = Prothrombin (Homo sapiens, UniProt P00734); assay: Thrombin 1536 HTS Dose Response Confirmation. [Related pubchem assays: 1046 (Thrombin 1536 HTS; hits were confirmed in this assay)]; assay type: functional
fMet-Leu-Phe receptor = target: T2, fMet-Leu-Phe receptor (Homo sapiens, UniProt P21462); assay: FPR ligands, dose response (AID 519); assay type: functional
T2 sequence (P21462 whole entry): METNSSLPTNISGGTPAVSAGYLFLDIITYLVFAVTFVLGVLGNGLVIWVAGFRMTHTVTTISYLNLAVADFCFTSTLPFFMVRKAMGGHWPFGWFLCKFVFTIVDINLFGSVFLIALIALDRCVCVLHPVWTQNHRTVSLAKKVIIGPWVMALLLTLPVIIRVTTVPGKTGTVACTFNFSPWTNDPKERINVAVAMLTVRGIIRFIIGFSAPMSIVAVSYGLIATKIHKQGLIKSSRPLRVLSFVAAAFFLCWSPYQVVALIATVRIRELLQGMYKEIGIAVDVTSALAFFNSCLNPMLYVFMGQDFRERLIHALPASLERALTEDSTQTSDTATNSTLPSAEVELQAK

Large T antigen = Large T antigen (Simian virus 40, UniProt P03070); assay type: functional, Betapolyomavirus macacae;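 further: Confirmatory-stage PubChem screen for compounds that inhibit SV40 T antigen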
Large T antigen, sequence (P03070 whole entry): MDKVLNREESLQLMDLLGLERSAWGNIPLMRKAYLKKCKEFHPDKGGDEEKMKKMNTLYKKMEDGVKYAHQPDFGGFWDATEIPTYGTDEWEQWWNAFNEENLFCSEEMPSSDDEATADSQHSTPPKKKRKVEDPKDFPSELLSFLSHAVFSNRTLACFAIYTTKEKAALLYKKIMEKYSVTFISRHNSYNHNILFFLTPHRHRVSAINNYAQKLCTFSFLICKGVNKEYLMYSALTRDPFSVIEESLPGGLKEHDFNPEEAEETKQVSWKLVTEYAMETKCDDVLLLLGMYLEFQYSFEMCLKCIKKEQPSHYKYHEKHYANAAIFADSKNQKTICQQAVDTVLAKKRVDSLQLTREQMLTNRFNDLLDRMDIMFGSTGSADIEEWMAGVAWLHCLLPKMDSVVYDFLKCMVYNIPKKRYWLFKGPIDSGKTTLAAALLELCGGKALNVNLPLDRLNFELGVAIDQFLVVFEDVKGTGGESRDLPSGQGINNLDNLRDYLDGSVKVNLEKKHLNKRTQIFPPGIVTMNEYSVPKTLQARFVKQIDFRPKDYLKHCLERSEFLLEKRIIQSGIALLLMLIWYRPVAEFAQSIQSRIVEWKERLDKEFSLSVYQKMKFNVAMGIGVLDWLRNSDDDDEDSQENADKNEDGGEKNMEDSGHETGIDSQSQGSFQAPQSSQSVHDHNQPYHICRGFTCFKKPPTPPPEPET

Aminopeptidase N = target: T3, Aminopeptidase N (Plasmodium falciparum FcB1/Columbia, UniProt O96935); assay: P. falciparum M1AAP inhibitors, biochemical, fluorogenic H-Leu-NHMec substrate, 1536-well (AID 1445); set-up: species or system Plasmodium falciparum 3D7, 3D7
T3 sequence (O96935 whole entry): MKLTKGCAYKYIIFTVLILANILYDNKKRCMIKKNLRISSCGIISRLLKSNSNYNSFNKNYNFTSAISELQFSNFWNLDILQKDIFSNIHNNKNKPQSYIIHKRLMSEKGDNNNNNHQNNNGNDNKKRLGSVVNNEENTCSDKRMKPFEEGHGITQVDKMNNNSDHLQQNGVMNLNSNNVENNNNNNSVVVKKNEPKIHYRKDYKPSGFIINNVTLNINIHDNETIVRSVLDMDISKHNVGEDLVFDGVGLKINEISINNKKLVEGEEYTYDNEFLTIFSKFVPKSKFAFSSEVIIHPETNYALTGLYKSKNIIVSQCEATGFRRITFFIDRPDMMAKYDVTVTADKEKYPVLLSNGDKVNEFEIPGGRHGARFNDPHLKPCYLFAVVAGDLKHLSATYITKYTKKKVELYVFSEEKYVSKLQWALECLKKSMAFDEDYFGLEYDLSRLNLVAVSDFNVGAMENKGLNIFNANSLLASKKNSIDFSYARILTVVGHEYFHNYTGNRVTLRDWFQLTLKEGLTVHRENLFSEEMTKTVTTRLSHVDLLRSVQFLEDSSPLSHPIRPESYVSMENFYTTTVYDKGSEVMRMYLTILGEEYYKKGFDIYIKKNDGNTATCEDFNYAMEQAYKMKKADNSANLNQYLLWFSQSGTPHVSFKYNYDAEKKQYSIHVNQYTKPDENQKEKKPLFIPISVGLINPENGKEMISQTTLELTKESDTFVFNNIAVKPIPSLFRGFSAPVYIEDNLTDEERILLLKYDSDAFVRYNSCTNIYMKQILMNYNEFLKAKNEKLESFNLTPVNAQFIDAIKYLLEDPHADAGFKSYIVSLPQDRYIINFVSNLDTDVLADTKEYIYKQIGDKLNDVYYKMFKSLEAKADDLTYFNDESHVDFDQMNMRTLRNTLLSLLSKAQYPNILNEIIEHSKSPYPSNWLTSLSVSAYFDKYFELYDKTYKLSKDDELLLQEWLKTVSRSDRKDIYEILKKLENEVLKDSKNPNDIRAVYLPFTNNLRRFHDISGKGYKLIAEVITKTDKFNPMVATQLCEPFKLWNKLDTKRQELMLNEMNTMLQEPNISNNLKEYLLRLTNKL

[5] = A375 melanoma cell viability loss, dose response, counter-screen for MITF inhibitor project, CellTiter-Glo luminescence, dry powder, set 4 (AID 624364); assay type: functional, cell-based; conditions: A-375;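 further: A375 melanoma cells are MITF independent so this is a counter screen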
Cytochrome P450 2D6 = Cytochrome P450 2D6 (Homo sapiens, UniProt P10635);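 further: CYP2D6 member of a cytochrome P450 panel assay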
Cytochrome P450 2D6, sequence (P10635 whole entry): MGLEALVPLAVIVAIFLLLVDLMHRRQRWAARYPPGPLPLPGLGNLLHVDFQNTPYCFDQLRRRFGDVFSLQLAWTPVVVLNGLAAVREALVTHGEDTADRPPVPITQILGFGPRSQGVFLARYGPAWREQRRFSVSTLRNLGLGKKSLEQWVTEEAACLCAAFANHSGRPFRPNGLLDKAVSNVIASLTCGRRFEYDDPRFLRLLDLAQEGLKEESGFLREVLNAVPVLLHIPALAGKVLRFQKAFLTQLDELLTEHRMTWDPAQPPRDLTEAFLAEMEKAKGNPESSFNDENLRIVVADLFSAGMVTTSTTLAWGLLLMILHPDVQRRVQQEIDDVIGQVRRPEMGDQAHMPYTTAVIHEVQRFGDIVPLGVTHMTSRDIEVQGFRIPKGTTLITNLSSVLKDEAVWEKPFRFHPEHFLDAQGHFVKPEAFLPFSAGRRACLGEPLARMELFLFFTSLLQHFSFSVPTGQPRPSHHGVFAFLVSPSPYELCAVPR

[6] = P. falciparum Dd2 growth inhibitors, dose response, SYBR Green, cherry-picked samples (AID 1159567); assay type: functional, cell-based

COc1ccc2c3ncn(CC4CCCO4)c(O)c-3nc2c1 (stereo not given)
IC50 [1]: > 100 µM (not active)

Cc1ccc(-n2c(Cc3cccn3C)nnc2SCC(=O)NCc2ccco2)cc1
IC50 [1]: > 100 µM (not active)

CCOc1cccc2cc(C(=O)Nc3nccs3)c(=O)oc12
IC50 [1]: > 100 µM (not active)
IC50 (cells): 1.31 µM (active)

CCOc1ccc(CCN2C(=S)N([C@@H](Cc3ccc(O)cc3)CN3CCC[C@@H]3CN3C(=S)NC[C@@H]3CC(C)C)C[C@@H]2Cc2ccccc2)cc1
IC50 [2]: > 69.5 µM (inactive)
IC50 [3]: > 69.5 µM (inactive)

CCOC(=O)C1=C(C)N(Cc2ccccc2)C(=O)NC1c1ccccc1OS(=O)(=O)c1ccccc1[N+](=O)[O-] (stereo not given)
CC50 [4]: 5.56 µM (active)
IC50 [2]: > 69.5 µM (inactive)
IC50 [3]: > 69.5 µM (inactive)

CCN(CC)CCCN(Cc1cc2cc3c(cc2[nH]c1=O)OCO3)C(=S)Nc1ccccc1OC
IC50 (Prothrombin): > 50 µM (not active)

COCCCN1C(=O)C(O)=C(C(=O)c2ccc3c(c2)CC(C)O3)C1c1cccnc1 (stereo not given)
Ki (fMet-Leu-Phe receptor): > 66.7 µM (inactive)

O=C(NC1CCCC1)c1sc(=S)n2c1[nH]c(=O)c1ccccc12
IC50 (Large T antigen): > 100 µM (active)
IC50 (Aminopeptidase N): 35 µM (active)
Ki (fMet-Leu-Phe receptor): 14.7 µM (active)

CCC(C)[C@H](NC(=O)NCC1CCCO1)C(=O)OC (stereo not given in full)
IC50 [1]: > 100 µM (not active)

OC(c1ccccc1)(c1nc(-c2cccc(C(F)(F)F)c2)cs1)C(F)(F)F (stereo not given)
IC50 [2]: > 69.5 µM (inactive)
IC50 [3]: 11.2 µM (inactive)

O=C1C(NS(=O)(=O)c2ccc(Br)cc2)=C(N2CCN(c3ccccc3)CC2)C(=O)c2ccccc21
AC50 [5]: > 70 µM (inactive)

COc1ccc(-c2cc(C(F)(F)F)nc(NC3CCCC3)n2)cc1OC
AC50 (Cytochrome P450 2D6): 20 µM (inconclusive)
Ki (fMet-Leu-Phe receptor): > 66.7 µM (inactive)

COc1ccccc1CN(CC(=O)NCc1ccco1)C(=O)CNS(=O)(=O)c1ccc(C)cc1
IC50 (Prothrombin): 7.63 µM (active)

CCCCOC(=O)Sc1nc2ccccc2o1
IC50 (Prothrombin): 3.11 µM (active)

CCc1nc2ccc(C(=O)Nc3cccc(OC)c3)cn2c1N(CC)Cc1cccc(Br)c1
IC50 [2]: > 69.5 µM (inactive)
IC50 [3]: > 69.5 µM (inactive)

O=C(C[C@H]1CC[C@@H]2[C@H](COC[C@@H](O)CN2C(=O)Nc2ccc3c(c2)OCO3)O1)N1CCN(c2ccccc2)CC1
AC50 [6]: 22.8 µM (active)
